Source: patent US20260262643A1, “HERBICIDAL BENZOXAZINES” (FMC CORPORATION, priority 2022, published 2026)

Legend:
[1] = test system: ducksalad; test: Test D flooded paddy test; type: in vivo, Heteranthera limosa; settings: 250 g ai/ha, applied to paddy water, visual rating after 13 to 14 days, scale 0 to 100 (0 no effect, 100 complete control)
Outline: (§1)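 Post-flood water application at the 2-leaf stage; 3 cm flood depth kept constant; visual control rating 0–100 after 13–14 days greenhouse growth.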

[2] = test system: pigweed, palmer; test: Test C preemergence; type: in vivo, Amaranthus palmeri; settings: preemergence, 0 to 100 scale (0 no effect, 100 complete control)
Outline: (§2)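 Greenhouse herbicide screen, 10-day duration. Test chemicals in solvent/surfactant blend were sprayed onto soil at sowing (pre) or onto 2–10 cm seedlings at one to two leaves (post); injury scored visually against controls, 0 no effect to 100 complete control.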

[3] = test system: soybean; test: Test C preemergence; type: in vivo, Glycine max; settings: preemergence, 0 to 100 scale (0 no effect, 100 complete control)
Outline: as §2

[4] = test system: galium; test: Test C postemergence; type: in vivo, Galium aparine; settings: postemergence, 10 days
Outline: as §2

[5] = test system: wheat; test: Test C postemergence; type: in vivo, Triticum aestivum; settings: postemergence, 10 days
Outline: as §2

[6] = test system: sedge, umbrella; test: Test D flooded paddy test; type: in vivo, Cyperus difformis; settings: 250 g ai/ha, applied to paddy water, visual rating after 13 to 14 days, scale 0 to 100 (0 no effect, 100 complete control)
Outline: as §1

[7] = test system: ryegrass, Italian; test: Test C postemergence; type: in vivo, Lolium multiflorum; settings: postemergence, 10 days
Outline: as §2

[8] = test system: corn; test: Test C postemergence; type: in vivo, Zea mays; settings: postemergence, 10 days
Outline: as §2

[9] = test system: blackgrass; test: Test C postemergence; type: in vivo, Alopecurus myosuroides; settings: postemergence, 10 days
Outline: as §2

[10] = test system: kochia; test: Test C postemergence; type: in vivo, Bassia scoparia; settings: postemergence, 10 days
Outline: as §2

[11] = test system: pigweed, palmer; test: Test C postemergence; type: in vivo, Amaranthus palmeri; settings: postemergence, 10 days
Outline: as §2

[12] = test system: barnyardgrass; test: Test C postemergence; type: in vivo, Echinochloa crusgalli; settings: postemergence, 10 days
Outline: as §2

[13] = test system: soybean; test: Test C postemergence; type: in vivo, Glycine max; settings: postemergence, 10 days
Outline: as §2

[14] = test system: horseweed; test: Test C postemergence; type: in vivo, Erigeron canadensis; settings: postemergence, 10 days
Outline: as §2

[15] = test system: green foxtail; test: Test C postemergence; type: in vivo, Setaria viridis; settings: postemergence, 10 days
Outline: as §2

[16] = test system: rice; test: Test D flooded paddy test; type: in vivo, Oryza sativa; settings: 250 g ai/ha, applied to paddy water, visual rating after 13 to 14 days, scale 0 to 100 (0 no effect, 100 complete control)
Outline: as §1

[17] = test system: barnyardgrass; test: Test C preemergence; type: in vivo, Echinochloa crusgalli; settings: preemergence, 0 to 100 scale (0 no effect, 100 complete control)
Outline: as §2

[18] = test system: green foxtail; test: Test C preemergence; type: in vivo, Setaria viridis; settings: preemergence, 0 to 100 scale (0 no effect, 100 complete control)
Outline: as §2

[19] = test system: oat, wild; test: Test C postemergence; type: in vivo, Avena fatua; settings: postemergence, 10 days
Outline: as §2

[20] = test system: oat, wild; test: Test C preemergence; type: in vivo, Avena fatua; settings: preemergence, 0 to 100 scale (0 no effect, 100 complete control)
Outline: as §2

[21] = test system: corn; test: Test C preemergence; type: in vivo, Zea mays; settings: preemergence, 0 to 100 scale (0 no effect, 100 complete control)
Outline: as §2

[22] = test system: blackgrass; test: Test C preemergence; type: in vivo, Alopecurus myosuroides; settings: preemergence, 0 to 100 scale (0 no effect, 100 complete control)
Outline: as §2

[23] = test system: ragweed; test: Test C postemergence; type: in vivo, Ambrosia artemisiifolia; settings: postemergence, 10 days
Outline: as §2

[24] = test system: ragweed; test: Test C preemergence; type: in vivo, Ambrosia artemisiifolia; settings: preemergence, 0 to 100 scale (0 no effect, 100 complete control)
Outline: as §2

[25] = test system: wheat; test: Test C preemergence; type: in vivo, Triticum aestivum; settings: preemergence, 0 to 100 scale (0 no effect, 100 complete control)
Outline: as §2

[26] = test system: kochia; test: Test C preemergence; type: in vivo, Bassia scoparia; settings: preemergence, 0 to 100 scale (0 no effect, 100 complete control)
Outline: as §2

[27] = test system: barnyardgrass; test: Test D flooded paddy test; type: in vivo, Echinochloa crus-galli; settings: 250 g ai/ha, applied to paddy water, visual rating after 13 to 14 days, scale 0 to 100 (0 no effect, 100 complete control)
Outline: as §1

[28] = test system: ryegrass, Italian; test: Test C preemergence; type: in vivo, Lolium multiflorum; settings: preemergence, 0 to 100 scale (0 no effect, 100 complete control)
Outline: as §2

[29] = 125 g ai/ha, 0 to 100 scale, 0 no effect, 100 complete control
[30] = 500 g ai/ha, 0 to 100 scale (0 no effect, 100 complete control)

Structure (SMILES): Cc1ccc(-n2cnc(C(C)C)n2)cc1C(=O)N1CC(C(F)(F)F)Oc2c(Cl)cccc21 (single isomer, unassigned) [Compound 291]
- Plant response rating, Ducksalad (Flood) [1]: 45
- Pigweed, Palmer plant response rating ([2]; 500 g ai/ha): 100
- Pigweed, Palmer plant response rating ([2]; Test C, 125 g ai/ha): 100
- Soybean plant response rating ([3]; 500 g ai/ha): 100
- Soybean plant response rating ([3]; Test C, 125 g ai/ha): 90
- Plant response rating, Galium [4, 29]: 100
- Plant response rating, Galium [4, 30]: 100
- Plant response rating, Wheat [5, 29]: 30
- Plant response rating, Wheat [5, 30]: 70
- Plant response rating, Sedge, Umbrella (Flood) [6]: 95
- Plant response rating, Ryegrass, Italian [7, 29]: 70
- Plant response rating, Ryegrass, Italian [7, 30]: 80
- Plant response rating, Corn [8, 29]: 20
- Plant response rating, Corn [8, 30]: 80
- Plant response rating, Blackgrass [9, 29]: 0
- Plant response rating, Blackgrass [9, 30]: 50
- Plant response rating, Kochia [10, 29]: 90
- Plant response rating, Kochia [10, 30]: 100
- Plant response rating, Pigweed, Palmer [11, 29]: 100
- Plant response rating, Pigweed, Palmer [11, 30]: 100
- Plant response rating, Barnyardgrass [12, 29]: 30
- Plant response rating, Barnyardgrass [12, 30]: 90
- Plant response rating, Soybean [13, 29]: 90
- Plant response rating, Soybean [13, 30]: 100
- Plant response rating, Horseweed [14, 29]: 60
- Plant response rating, Horseweed [14, 30]: 60
- Plant response rating, Foxtail, Green [15, 29]: 30
- Plant response rating, Foxtail, Green [15, 30]: 90
- Plant response rating, Rice (Flood) [16]: 0
- Barnyardgrass plant response rating ([17]; 500 g ai/ha): 100
- Barnyardgrass plant response rating ([17]; Test C, 125 g ai/ha): 100
- Foxtail, Green plant response rating ([18]; 500 g ai/ha): 100
- Foxtail, Green plant response rating ([18]; Test C, 125 g ai/ha): 100
- Plant response rating, Oat, Wild [19, 29]: 50
- Plant response rating, Oat, Wild [19, 30]: 80
- Oat, Wild plant response rating ([20]; 500 g ai/ha): 80
- Oat, Wild plant response rating ([20]; Test C, 125 g ai/ha): 60
- Corn plant response rating ([21]; 500 g ai/ha): 50
- Corn plant response rating ([21]; Test C, 125 g ai/ha): 30
- Blackgrass plant response rating ([22]; 500 g ai/ha): 70
- Blackgrass plant response rating ([22]; Test C, 125 g ai/ha): 50
- Plant response rating, Ragweed [23, 29]: 70
- Plant response rating, Ragweed [23, 30]: 80
- Ragweed plant response rating ([24]; 500 g ai/ha): 60
- Ragweed plant response rating ([24]; Test C, 125 g ai/ha): 40
- Wheat plant response rating ([25]; 500 g ai/ha): 50
- Wheat plant response rating ([25]; Test C, 125 g ai/ha): 30
- Kochia plant response rating ([26]; 500 g ai/ha): 100
- Kochia plant response rating ([26]; Test C, 125 g ai/ha): 80
- Plant response rating, Barnyardgrass (Flood) [27]: 40
- Ryegrass, Italian plant response rating ([28]; 500 g ai/ha): 100
- Ryegrass, Italian plant response rating ([28]; Test C, 125 g ai/ha): 90
